Test results published in patent publication US20100266712A1, “Prevention of Acute Kidney Injury” (Austin Health, priority 2007, published 2010).

Experiments:
[1] = system: high-risk cardiac surgical patients undergoing cardiopulmonary bypass
Method: A double-blind, randomised, placebo controlled trial of the effect of sodium bicarbonate on postoperative renal function and oxidative stress in subjects undergoing elective cardiopulmonary bypass surgery was conducted.
The Human Research Ethics Committee of the Austin Hospital approved the trial and the Therapeutic Goods Administration of the Australian Government, Department of Health and Ageing approved the use of sodium bicarbonate for this indication. Written informed consent was obtained from each patient. Patients were identified in surgical pre-admission clinics and on hospital wards. Patients who were enrolled were at high risk of post-operative AKI and were scheduled for elective cardiac surgery necessitating the use of CPB at a university tertiary referral hospital (Austin Hospital) and a co-located large private hospital (Warringal Hospital). Those considered at high risk for post-operative AKI, defined as fulfilling one or more pre-defined inclusion criteria and no exclusion criteria, were considered eligible. Patients at particular risk of post-bypass renal injury were defined as having at least one of the following: (a) age >70; (b) preoperative creatinine […]; (c) New York Heart Association symptom severity class 3 or 4; (d) valve surgery; (e) insulin dependent diabetes mellitus; or (f) redo surgery.
(§1) Body weight adjusted dose of study medication was achieved by infusion of 154 mEq/L of sodium bicarbonate (Pfizer, Bentley, WA, Australia) or sodium chloride (Astra Zeneca, North Ryde, NSW, Australia) diluted in 5% dextrose (Baxter, Sydney, NSW, Australia) and H2O at an infusion rate of 3 mL kg^−1 h^−1 for 1 hour immediately after the induction of anesthesia, prior to the first surgical incision followed by continuous infusion at an infusion rate of 1 mL kg^−1 n^−1 over 23 hours. Sodium bicarbonate or sodium chloride was administered at a dose of 0.45 mEq/kg body weight over 1 hour followed by continuous intravenous infusion of 0.15 mEq/kg/hr over 23 hours (total dose of 4 mEq/kg over 24 hours).
The hospital pharmacy clinical trials coordinator used a Microsoft Excel-based (Microsoft Corp. Redmond, Wash., USA) random number generator to create the randomization list using a permuted block strategy with blocks of six. Infusion bags were each delivered in separate shrink-wrapped black plastic bags that were identical in appearance. Allocation concealment to patients, anesthesiologists, cardiac surgeons, intensive care specialists, bedside nurses and investigators (multiple blind) was ensured by central randomization through the Department of Pharmacy at the Austin Hospital.
The primary study outcome measure was the number of patients who developed post-operative acute kidney injury. This was defined as an increase in plasma creatinine concentration greater than 0.5 mg/dL (44 μmol/L) or greater than 25% from baseline to peak value at any time within the first five post-operative days. This definition is identical to that used in a recent large randomized controlled trial of cardiac surgery-associated AKI.
The renal secondary outcomes for this study were changes in plasma creatinine concentration within the first five post-operative days and in urinary neutrophil gelatinase-associated lipocalin (NGAL) concentration within the first 24 hours post-operatively. Creatinine was sampled daily and NGAL was sampled prior to induction of anesthesia, at 6 hours and at 24 hours after commencement of CPB. Creatinine was measured using the modified Jaffé method and NGAL as recently described (Mishra et al, 2005).
All data were analyzed according to the intention-to-treat principle. Continuous data were tested for normal distribution using histograms. Between-group comparisons for continuous data were performed with the use of the t test or the Mann-Whitney U test and for categorical data with the use of Fisher exact test or chi-square test where appropriate.

[2] = system: high-risk cardiac surgical patients undergoing cardiopulmonary bypass; remark: listed apart in the source
Method: as §1
Additional secondary outcomes included changes in acid-base status, clinical outcomes such as need for renal replacement therapy, duration of ventilation, length of intensive care unit and hospital stay, and adverse events.
(§2) All data were analyzed according to the intention-to-treat principle. Continuous data were tested for normal distribution using histograms. Between-group comparisons for continuous data were performed with the use of the t test or the Mann-Whitney U test and for categorical data with the use of Fisher exact test or chi-square test where appropriate. All tests were 2-tailed and a P value <0.05 was taken to indicate statistical significance. Values were reported as means with standard error of the mean (SEM) and mean difference or odds ratio (OR) with 95% confidence interval (95% CI) estimate as appropriate.

[3] = system: high-risk cardiac surgical patients undergoing cardiopulmonary bypass; remark: listed apart in the source
Method: as §1
Specific adverse events targeted for detection included the incidence of hypernatremia ([Na^+]>150 mEq/L), hypokalemia ([K^+]<3.5 mEq/L), alkalemia (pH>7.50), post-operative atrial fibrillation and other post-operative arrhythmias (supraventricular arrhythmias, ventricular tachycardia and ventricular fibrillation) during study treatment.
as §2

[4] = from before to 24 hours after commencement of study infusion, N = 50
[5] = sodium bicarbonate vs sodium chloride
[6] = sodium bicarbonate vs sodium chloride, P<0.001

O=C([O-])O.[Na+] [sodium bicarbonate]
increase in urinary NGAL concentration ([1]; baseline to peak within first 24 hours post-operatively, compared to sodium chloride, P=0.009, FIG. 1B): attenuated | relative increase in plasma creatinine ([1]; baseline to peak within first five post-operative days, mean ± SEM, P=0.01 vs sodium chloride): 28.5±6.5% | absolute increase in plasma creatinine concentration ([1]; compared to sodium chloride patients, P=0.01, FIG. 1A): less | patients with a plasma creatinine increase greater than 50% from baseline to peak value ([1]; patients/N, control 15/50): 8/50 | patients who developed post-operative AKI ([1]; patients/N, plasma creatinine increase >0.5 mg/dL (44 μmol/L) or >25% from baseline to peak within first five post-operative days, 4 mEq/kg i.v. over 24 hours): 16/50 | odds ratio for post-operative AKI ([1]; vs. sodium chloride control group (26/50), 95% CI 0.19-0.98, P=0.04): 0.43 | odds ratio for plasma creatinine increase greater than 50% ([1]; vs. sodium chloride control, 95% CI 0.17-1.17, P=0.10): 0.44 | absolute risk reduction for AKI ([1]; vs. sodium chloride control, 95% CI 1.1-39.0%): 20% | urine pH ([2]; 6 and 24 hours after commencement of study drug infusion, P<0.001 vs control, FIG. 1C): induced urinary alkalinization | Length of stay in hospital, mean (SEM) ([2]; N = 50, P=0.60): 10.4 (1.0) days | Length of ventilation, mean (SEM) ([2]; N = 50, P=0.83): 1657 (299) min | Length of stay in intensive care unit, mean (SEM) ([2]; N = 50, P=0.96): 73.8 (14.0) hrs | Hospital deaths ([2]; N = 50, P>0.99): 1 (2) no. (%) | Renal replacement therapy ([2]; N = 50, P>0.99): 2 (4) no. (%) | Change in plasma base excess, mean (SEM) [2, 4]: 3.8 (0.5) | Change in plasma bicarbonate, mean (SEM) [2, 4]: 3.7 (0.5) mEq/L | Change in plasma pH, mean (SEM) [2, 4]: 0.04 (0.01) | Length of stay in hospital, Mean Difference [2, 5]: -0.8 days | Length of stay in intensive care unit, Mean Difference [2, 5]: -1.0 h | Length of ventilation, Mean Difference [2, 5]: -99 min | Change in plasma base excess, Mean Difference [2, 6]: 6.0 | Change in plasma bicarbonate, Mean Difference [2, 6]: 5.2 mEq/L | Change in plasma pH, Mean Difference [2, 6]: 0.07 | patients with plasma sodium concentration >150 mEq/L (hypernatremia) ([3]; during study treatment, both groups): No patient | patients with an episode of supraventricular tachycardia ([3]; during study treatment, of 50 patients): One | patients with a pH level greater than 7.50 (alkalemia) ([3]; during study treatment, of 50 patients, P=0.24): three | incidence of new-onset atrial fibrillation ([3]; during treatment, patients/N, control 4/50, P>0.99): 5/50 | patients with plasma potassium <3.5 mEq/L (hypokalemia) ([3]; patients/N, control 1/50, P=0.20): 5/50
